Data published in patent publication US12378256B2, “Heterocyclic compound” (Takeda Pharmaceutical Company Limited, priority 2017, dated 2025).

Biological target: T1, human M1 receptor (hCHRM1) (Homo sapiens, UniProt P11229)
T1 construct: expressed in transfected cells; host or cells: CHO-K1
T1 sequence (P11229 1-460): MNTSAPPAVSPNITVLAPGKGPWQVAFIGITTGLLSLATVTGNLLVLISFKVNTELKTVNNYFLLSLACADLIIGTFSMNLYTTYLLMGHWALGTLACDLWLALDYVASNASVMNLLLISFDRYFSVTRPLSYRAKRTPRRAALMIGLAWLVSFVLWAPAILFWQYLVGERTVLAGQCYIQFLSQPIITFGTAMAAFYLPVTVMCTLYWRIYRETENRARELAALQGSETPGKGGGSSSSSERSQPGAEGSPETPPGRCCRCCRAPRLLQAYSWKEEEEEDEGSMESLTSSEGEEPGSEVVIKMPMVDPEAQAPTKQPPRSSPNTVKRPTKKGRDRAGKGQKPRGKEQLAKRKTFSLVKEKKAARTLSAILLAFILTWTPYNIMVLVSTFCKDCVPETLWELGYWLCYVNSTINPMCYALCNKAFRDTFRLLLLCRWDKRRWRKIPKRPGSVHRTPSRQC
Assay: Measurement of M1 receptor positive allosteric modulator (M1PAM) activity, calcium fluorescence with acetylcholine at EC20
Assay type: cell-based
Settings: for activity (%) at 10 μM: 10 μM test compound, 100% = 1 μM acetylcholine, 0% = DMSO; for EC50: CHO-K1 cells expressing hCHRM1, acetylcholine at EC20 (final 0.8-1.0 nM), read-out: IP value (inflection point in the concentration-dependent curve)
Description: Measurement of M1 Receptor Positive Allosteric Modulator (M1PAM) Activity
The activity of a test compound in the presence of acetylcholine at EC20 concentration (final concentration 0.8-1.0 nM), which affords an action corresponding to about 20% of the maximum activity, was measured as PAM activity. The method is as follows. CHO-K1 cells stably expressing a human M1 receptor (hCHRM1) were plated on a 384-well black clear bottom plate (BD Falcon) at 5,000 cells/well, and cultured in an incubator at 37° C., 5% CO2 for 1 day. The medium in the cell plate was removed, and assay buffer A containing calcium indicator (Recording medium (DOJINDO LABORATORIES), 0.1% BSA (Wako Pure Chemical Industries, Ltd.), 2.5 μg/mL Fluo-4 AM (DOJINDO LABORATORIES), 0.08% Pluronic F127 (DOJINDO LABORATORIES), 1.25 mM probenecid (DOJINDO LABORATORIES)) was added at 30 μL/well. The cells were left standing in the incubator at 37° C., 5% CO2 for 30 min, and further left standing at room temperature for 30 min. A test compound prepared by diluting with assay buffer B (HBSS (Invitrogen), 20 mM HEPES (Invitrogen), 0.1% BSA) containing 3.2-4.0 nM acetylcholine was added at 10 μL/well, and the fluorescence was measured by FDSS/μCELL (Hamamatsu Photonics K.K.) for 1 min every for 1 second. With the definition that the amount of change in the fluorescence on addition of acetylcholine (final concentration 1 μM) is 100% and that on addition of DMSO instead of a test compound is 0%, the activity (%) of the test compound was calculated, and the inflection point in the concentration-dependent curve of the test compound was calculated as IP values.

Structure (SMILES)	activity (%) at 10 μM	EC50
O=C(NC1CC(F)(F)CCC1O)c1cc(Cc2ccc(-n3cccn3)cc2)c2c(n1)CCO2 (single isomer, unassigned) [Example 27, N-(trans-5,5-difluoro-2-hydroxycyclohexyl)-7-(4-(1H-pyrazol-1-yl)benzyl)-2,3-dihydrofuro[3,2-b]pyridine-5-carboxamide]	100%	4.5 nM
O=C(N[C@@H]1CCC(F)(F)C[C@H]1O)c1cc(Cc2ccc(-n3cccn3)cc2)c2c(n1)CCO2 (single isomer, unassigned) [Example 46, N-(trans-4,4-difluoro-2-hydroxycyclohexyl)-7-(4-(1H-pyrazol-1-yl)benzyl)-2,3-dihydrofuro[3,2-b]pyridine-5-carboxamide]	107%	4.3 nM
Cn1cc(-c2ccc(C(F)c3cc(C(=O)N[C@H]4CCOC[C@@H]4O)nc4ccoc34)cc2)nn1 (single isomer, unassigned) [Example 56, 1,5-anhydro-2,3-dideoxy-3-(((7-(fluoro(4-(1-methyl-1H-1,2,3-triazol-4-yl)phenyl)methyl)furo[3,2-b]pyridin-5-yl)carbonyl)amino)-L-threo-pentitol]	106%	42 nM
O=C(N[C@H]1COCC[C@@H]1O)c1cc(Cc2ccc(-n3cccn3)cc2)c2c(n1)CCO2 [Example 3, 1,5-anhydro-2,4-dideoxy-2-(((7-(4-(1H-pyrazol-1-yl)benzyl)-2,3-dihydrofuro[3,2-b]pyridin-5-yl)carbonyl)amino)-L-threo-pentitol]	100%	13 nM
Cn1ccc(-c2ccc(Cc3cc(C(=O)N[C@H]4COCC[C@@H]4O)nc4c3OCC4)cc2)n1 [Example 8, 1,5-anhydro-2,4-dideoxy-2-(((7-(4-(1-methyl-1H-pyrazol-3-yl)benzyl)-2,3-dihydrofuro[3,2-b]pyridin-5-yl)carbonyl)amino)-L-threo-pentitol]	100%	7.9 nM
Cc1csc(-c2ccc(Cc3cc(C(=O)N[C@H]4CCCC[C@@H]4O)nc4c3OCC4)cc2)n1 [Example 16, N-((1S,2S)-2-hydroxycyclohexyl)-7-(4-(4-methyl-1,3-thiazol-2-yl)benzyl)-2,3-dihydrofuro[3,2-b]pyridine-5-carboxamide]	100%	10 nM
Cc1ncc(-c2ccc(Cc3cc(C(=O)N[C@H]4CCCC[C@@H]4O)nc4c3OCC4)cc2)s1 [Example 18, N-((1S,2S)-2-hydroxycyclohexyl)-7-(4-(2-methyl-1,3-thiazol-5-yl)benzyl)-2,3-dihydrofuro[3,2-b]pyridine-5-carboxamide]	97%	12 nM
Cn1cc(-c2ccc(Cc3cc(C(=O)N[C@H]4CCOC[C@@H]4O)nc4ccoc34)cn2)nn1 [Example 34, 1,5-anhydro-2,3-dideoxy-3-(((7-((6-(1-methyl-1H-1,2,3-triazol-4-yl)pyridin-3-yl)methyl)furo[3,2-b]pyridin-5-yl)carbonyl)amino)-L-threo-pentitol]	100%	2.4 nM
Cc1cc(-c2ccc(Cc3cc(C(=O)N[C@H]4CCOC[C@@H]4O)nc4ccoc34)cc2)cnn1 [Example 43, 1,5-anhydro-2,3-dideoxy-3-(((7-(4-(6-methylpyridazin-4-yl)benzyl)furo[3,2-b]pyridin-5-yl)carbonyl)amino)-L-threo-pentitol]	110%	2.4 nM
Cc1nccc(-c2ccc(Cc3cc(C(=O)N[C@H]4CCOC[C@@H]4O)nc4ccoc34)cc2)n1 [Example 49, 1,5-anhydro-2,3-dideoxy-3-(((7-(4-(2-methylpyrimidin-4-yl)benzyl)furo[3,2-b]pyridin-5-yl)carbonyl)amino)-L-threo-pentitol]	104%	2.9 nM
Cc1cc2nc(C(=O)N[C@H]3CCOC[C@@H]3O)cc(Cc3ccc(-c4cn(C)nn4)cc3)c2o1 [Example 64, 1,5-anhydro-2,3-dideoxy-3-(((2-methyl-7-(4-(1-methyl-1H-1,2,3-triazol-4-yl)benzyl)furo[3,2-b]pyridin-5-yl)carbonyl)amino)-L-threo-pentitol]	109%	2.4 nM
CNC(=O)c1ccc(Cc2cc(C(=O)N[C@H]3CCOC[C@@H]3O)nc3cc(C)oc23)cc1F [Example 65, 1,5-anhydro-2,3-dideoxy-3-(((7-(3-fluoro-4-(methylcarbamoyl)benzyl)-2-methylfuro[3,2-b]pyridin-5-yl)carbonyl)amino)-L-threo-pentitol]	106%	8.5 nM

Compounds with a lower EC50, results first:

activity (%) at 10 μM	EC50	Structure (SMILES)
104%	0.88 nM	Cn1cc(-c2ccc(C(F)c3cc(C(=O)N[C@H]4CCOC[C@@H]4O)nc4ccoc34)cn2)cn1 (single isomer, unassigned) [Example 51, 1,5-anhydro-2,3-dideoxy-3-(((7-(fluoro(6-(1-methyl-1H-pyrazol-4-yl)pyridin-3-yl)methyl)furo[3,2-b]pyridin-5-yl)carbonyl)amino)-L-threo-pentitol]
99%	1.1 nM	Cn1cc(-c2ccc(C(F)c3cc(C(=O)N[C@H]4CCCC[C@@H]4O)nc4ccoc34)cc2)nn1 (single isomer, unassigned) [Example 57]
100%	1.6 nM	Cn1cc(-c2ccc(Cc3cc(C(=O)N[C@H]4COCC[C@@H]4O)nc4ccoc34)cc2)nn1 [Example 21, 1,5-anhydro-2,4-dideoxy-2-(((7-(4-(1-methyl-1H-1,2,3-triazol-4-yl)benzyl)furo[3,2-b]pyridin-5-yl)carbonyl)amino)-L-threo-pentitol]
99%	1.5 nM	Cn1cc(-c2ccc(Cc3cc(C(=O)N[C@H]4CCCC[C@@H]4O)nc4ccoc34)cc2)nn1 [Example 23, N-((1S,2S)-2-hydroxycyclohexyl)-7-(4-(1-methyl-1H-1,2,3-triazol-4-yl)benzyl)furo[3,2-b]pyridine-5-carboxamide]
101%	2.3 nM	Cn1ccc(-c2ccc(Cc3cc(C(=O)N[C@H]4CCOC[C@@H]4O)nc4c3OCC4)cc2)n1 [Example 28, 1,5-anhydro-2,3-dideoxy-3-(((7-(4-(1-methyl-1H-pyrazol-3-yl)benzyl)-2,3-dihydrofuro[3,2-b]pyridin-5-yl)carbonyl)amino)-L-threo-pentitol]
98%	1.6 nM	Cn1cc(-c2ccc(Cc3cc(C(=O)N[C@H]4CCOC[C@@H]4O)nc4ccoc34)cc2)cn1 [Example 40, 1,5-anhydro-2,3-dideoxy-3-(((7-(4-(1-methyl-1H-pyrazol-4-yl)benzyl)furo[3,2-b]pyridin-5-yl)carbonyl)amino)-L-threo-pentitol]
101%	1.8 nM	Cn1cc(-c2ccc(Cc3cc(C(=O)N[C@H]4CCCC[C@@H]4O)nc4c3OCC4)cc2)nn1 [Example 47, N-((1S,2S)-2-hydroxycyclohexyl)-7-(4-(1-methyl-1H-1,2,3-triazol-4-yl)benzyl)-2,3-dihydrofuro[3,2-b]pyridine-5-carboxamide]
103%	1.1 nM	O=C(N[C@H]1CCOC[C@@H]1O)c1cc(Cc2ccc(-n3cccn3)cc2)c2occc2n1 [Example 48, 1,5-anhydro-2,3-dideoxy-3-(((7-(4-(1H-pyrazol-1-yl)benzyl)furo[3,2-b]pyridin-5-yl)carbonyl)amino)-L-threo-pentitol]
104%	1.6 nM	Cn1cc(-c2ccc(Cc3cc(C(=O)N[C@H]4CCOC[C@@H]4O)nc4c3OCC4)cn2)cn1 [Example 60, 1,5-anhydro-2,3-dideoxy-3-(((7-((6-(1-methyl-1H-pyrazol-4-yl)pyridin-3-yl)methyl)-2,3-dihydrofuro[3,2-b]pyridin-5-yl)carbonyl)amino)-L-threo-pentitol]
104%	1.8 nM	Cn1cc(-c2ccc(Cc3cc(C(=O)N[C@H]4CCCC[C@@H]4O)nc4c3OCC4)cn2)cn1 [Example 61, N-((1S,2S)-2-hydroxycyclohexyl)-7-((6-(1-methyl-1H-pyrazol-4-yl)pyridin-3-yl)methyl)-2,3-dihydrofuro[3,2-b]pyridine-5-carboxamide]
